Among the data in patent US20250074889A1, “Novel Aminobenzene Derivative Having Cancer Cell Growth Inhibitory Effect, and Preventive or Therapeutic Pharmaceutical Composition Containing Same as Active Ingredient” (Daewoong Pharmaceutical Co., Ltd., priority 2022, published 2025) are IC50 values, retold here.

As usually defined, the IC50 is the concentration needed to halve the response being measured. Low values mean greater potency in that assay, high ones weaker potency in that assay.

Holding throughout (type): cell-based
For assay [1], the system named is MSTO-211H human mesothelioma cell line. Briefly: Cell growth inhibition test (CellTiter-Glo), MSTO-211H. The settings on record: MSTO-211H cells. Here is the method: (§1) The cell growth for the compounds prepared in Examples was measured by CellTiter-Glo® Luminescent Cell Viability (Promega, Catalog #G7571) method using NCI-H226 (addexbio), NCI-H28 (Korea Cell Line Bank) and MSTO-211H (elabscience) human mesothelioma cell lines. This evaluation method is a method in which when luciferase enzyme is activated by ATP flowing out from living cells, it reacts with a luciferin substrate, and the enzyme activity at this time is measured to confirm cell viability.
(§2) Specifically, NCI-H226, NCI-H28, and MSTO-211H cells were prepared in 100 μL of cell culture medium (RPMI medium, 10% FBS, 1% P/S, 4.5 g/L D-Glucose, 2.383 g/L HEPES Buffer, L-Glutamine, 1.5 g/L Sodium Bicarbonate, 110 mg/L Sodium pyruvate) in a white clear bottom 96-well microplate. The prepared plate was incubated in a 5% CO2 incubator at 37° C. for 24 hours, and then the previously prepared compounds of Examples were finally treated at concentrations of 0.001, 0.01, 0.1, 1, and 10 μM, which was repeated three times for all treatment solutions. The plates treated with the compounds of Examples were incubated in a 5% CO2 incubator at 37° C. 100 μL/well of the substrate aqueous solution containing luciferin was added to a white clear-bottom 96 well microplate, thereby initiating an enzyme reaction. The reaction was performed at room temperature in the dark for 10 minutes, and the luminescence was measured using a Flexstation3 multi-mode microplate reader. In accordance with the instructions for the CellTiter-Glo™ Luminescednt Cell Viability, the luciferase enzyme activity, which represents the amount of ATP, was measured by a chemiluminescence method, and the inhibitory activity of the compounds according to the present invention was calculated. The results of each compound were analyzed using Microsoft Excel, and the IC50 values were calculated using GraphPad Prism software.
On the technique in general: In ATP-based viability assays light output follows the ATP content of the culture.

Assay [2] deals with NCI-H28 human mesothelioma cell line. The assay is described as follows: Cell growth inhibition test (CellTiter-Glo), NCI-H28. The settings on record: NCI-H28 cells. On the procedure: as §1, §2
Assay [3] has as its system NCI-H226 human mesothelioma cell line. Briefly: Cell growth inhibition test (CellTiter-Glo), NCI-H226. The settings on record: NCI-H226 cells. On the procedure: as §1, §2
For assay [4], the system named is transcription factor TEAD. Briefly: Activity inhibition test of transcription factor TEAD (ONE-Glo luciferase, TEAD reporter-MCF7 cell line). The settings on record: Homo sapiens; TEAD Reporter-MCF7 cells, 24 hours treatment, luciferase luminescence. On the procedure: The transcription factor TEAD activity of the compounds prepared in Examples was measured by the ONE-Glo™ Luciferase assay (Promega, Catalog #E6110) method using the Hippo Pathway TEAD reporter-MCF7 recombinant cell line (BPS Bioscience, Catalog #60618).
Specifically, the TEAD Reporter-MCF7 cell line contains the firefly luciferase gene whose expression is regulated under the control of TEAD response elements in the MCF7, which is a human breast cancer cell line. In the cell line, a non-phosphorylated YAP/TAZ exists in the nucleus in a non-stressed condition, which continuously induces expression of the luciferase reporter.
TEAD Reporter-MCF7 cells were prepared in 100 μL of cell culture medium (MEM medium, 10% FBS, 1% P/S, 400 μg/mL Geneticin, 1% […], 1 mM NA pyruvate, 10 μg/mL Insulin) in a white clear bottom 96-well microplate. The prepared plate was incubated in a 5% CO2 incubator at 37° C. for 24 hours, and then the previously prepared compounds of Examples were finally treated at concentrations of 0.001, 0.01, 0.1, 1, and 10 µM, which were repeated three times for all treatment solutions. The plates treated with the compounds of Examples were incubated in a 5% CO2 incubator at 37° C. for 24 hours. 100 μL/well of the substrate aqueous solution containing luciferin was added to a white clear-bottom 96 well microplate, thereby initiating an enzyme reaction. The reaction was performed at room temperature for 5 minutes, and the luminescence (integration time 1000 ms) was measured using a Flexstation3 multi-mode microplate reader. In accordance with the instructions for the ONE-Glo™ Luciferase Assay, the luciferase enzyme activity, which represents the activity of the transcription factor TEAD, was measured by a chemiluminescence method, and the inhibitory activity of the compound according to the present invention was calculated. The results of each compound were analyzed using Microsoft Excel, and the IC50 values were calculated by GraphPad Prism software.

With `C=CC(=O)Nc1ccc(Nc2ccc(C(F)(F)F)cn2)c(-c2ccccn2)c1` [Example 4, N-(3-(pyridin-2-yl)-4-((5-(trifluoromethyl)pyridin-2-yl)amino)phenyl)acrylamide], the IC50 in assay [1] was found to be 130 nM; in assay [2], 3310 nM; in assay [3], 6 nM; in assay [4], 17.8 nM.
Turning to `C=CC(=O)Nc1ccc(Nc2ccc(C(F)(F)F)cn2)c(-c2cn(C)cn2)c1` [Example 6, N-(3-(1-methyl-1H-imidazol-4-yl)-4-((5-(trifluoromethyl)pyridin-2-yl)amino)phenyl)acrylamide], the half-maximal inhibitory concentration (IC50) in assay [1] turned out to be 221 nM; in assay [2], 1380 nM; in assay [3], 3 nM; in assay [4], 10 nM.
In the case of `C=CC(=O)Nc1ccc(Nc2ccc(C(F)(F)F)cn2)c(-c2ccncn2)c1` [Example 15, N-(3-(pyrimidin-4-yl)-4-((5-(trifluoromethyl)pyridin-2-yl)amino)phenyl)acrylamide], the IC50 is 552 nM in assay [1], 1570 nM in assay [2], 71.8 nM in assay [3] and 42.8 nM in assay [4].
As for `C=CC(=O)Nc1ccc(Nc2ncc(C(F)(F)F)cc2F)c(-c2ccccn2)c1` [Example 21, N-(4-((3-fluoro-5-(trifluoromethyl)pyridin-2-yl)amino)-3-(pyridin-2-yl)phenyl)acrylamide], the IC50 is 3270 nM in assay [1], 2680 nM in assay [2], 9 nM in assay [3] and 11.5 nM in assay [4].
For `C=CC(=O)Nc1cc(F)c(Nc2ccc(C(F)(F)F)cn2)c(-c2ccccn2)c1` [Example 29, N-(3-fluoro-5-(pyridin-2-yl)-4-((5-(trifluoromethyl)pyridin-2-yl)amino)phenyl)acrylamide], in that order: 196 nM, 2550 nM, 20 nM and 21.5 nM.
For `C=CC(=O)Nc1ccc(Nc2cc(C3CC3)c(Cl)cn2)c(-c2ccccn2)c1` [Example 30, N-(4-((5-chloro-4-cyclopropylpyridin-2-yl)amino)-3-(pyridin-2-yl)phenyl)acrylamide], in that order: 2210 nM, 8790 nM, 10 nM and 31.6 nM.
Consider `C=CC(=O)Nc1ccc(Nc2cc(C(F)(F)F)ccn2)c(-c2cn(C)cn2)c1` [Example 31, N-(3-(1-methyl-1H-imidazol-4-yl)-4-((4-(trifluoromethyl)pyridin-2-yl)amino)phenyl)acrylamide], for which the figures for the IC50 in assay [1], in assay [2] and in assay [4] were > 10000 nM, 3110 nM and 314 nM, respectively.
For `C=CC(=O)Nc1ccc(Nc2ccc(C(F)(F)F)cc2)c(-c2cn(C)cn2)c1` [Example 35, N-(3-(1-methyl-1H-imidazol-4-yl)-4-((4-(trifluoromethyl)phenyl)amino)phenyl)acrylamide], the concentration for half-maximal inhibition (IC50) in assay [1] stood at 105 nM; in assay [2] it was 3020 nM; in assay [3], 3 nM; in assay [4], 5.3 nM.
For `C=CC(=O)Nc1ccc(Nc2ncc(C(F)(F)F)cc2F)c(-c2cn(C)cn2)c1` [Example 36, N-(4-((3-fluoro-5-(trifluoromethyl)pyridin-2-yl)amino)-3-(1-methyl-1H-imidazol-4-yl)phenyl)acrylamide], in that order: > 10000 nM, > 10000 nM, 12 nM and 27 nM.
In the same order, the values of `C=CC(=O)Nc1ccc(Nc2cc(Cl)c(C(F)(F)F)cn2)c(-c2ccn(C)n2)c1` [Example 37, N-(4-((4-chloro-5-(trifluoromethyl)pyridin-2-yl)amino)-3-(1-methyl-1H-pyrazol-3-yl)phenyl)acrylamide] are 3750 nM, 1100 nM, 13 nM and 4.5 nM.
On to `C=CC(=O)Nc1cnc(Nc2ccc(C(F)(F)F)cn2)c(-c2ccccn2)c1` [Example 39, N-(2′-((5-(trifluoromethyl)pyridin-2-yl)amino)-[2,3′-bipyridin]-5′-yl)acrylamide], for which the IC50 was determined as 194 nM in assay [1], 3280 nM in assay [2], 15.8 nM in assay [3] and 40.3 nM in assay [4].
In the case of `C=CC(=O)Nc1ccc(Nc2ccc(C(F)(F)F)c(F)c2)c(-c2cn(C)cn2)c1` [Example 40, N-(4-((3-fluoro-4-(trifluoromethyl)phenyl)amino)-3-(1-methyl-1H-imidazol-4-yl)phenyl)acrylamide], the 50% inhibitory concentration (IC50) in assay [1] came out at 1130 nM; in assay [2], 5540 nM; in assay [3] it was 6.6 nM; in assay [4], 15 nM.
Turning to `C=CC(=O)Nc1ccc(Nc2ncc(C(F)(F)F)cc2Cl)c(-c2ccn(C)n2)c1` [Example 53, N-(4-((3-chloro-5-(trifluoromethyl)pyridin-2-yl)amino)-3-(1-methyl-1H-pyrazol-3-yl)phenyl)acrylamide], the IC50 came out at 8240 nM in assay [1], 1670 nM in assay [2], 62.8 nM in assay [3] and 30.7 nM in assay [4].
For `C=CC(=O)Nc1ccc(Nc2cc(Cl)c(Cl)cn2)c(-c2ccn(C)n2)c1` [Example 55, N-(4-((4,5-dichloropyridin-2-yl)amino)-3-(1-methyl-1H-pyrazol-3-yl)phenyl)acrylamide], in that order: 167 nM, 1250 nM, 65 nM and 12.8 nM.
